The values below come from article PMC6321291, “Synthesis, Biological Evaluation and Docking Studies of Benzoxazoles Derived from Thymoquinone” (Molecules, 2018).

Broadly, the IC50 is the concentration that inhibits the measured activity by half. Read a low IC50 as higher potency. The term melting point denotes the temperature of the solid-liquid transition.

Data set [1] can be described thus: MTT assay, WI38 healthy control. As to conditions: WI38 human lung fibroblast cells, WI38 healthy control human fibroblast cell line. The format is cell-based. How it is done:
(§1) The tested compounds were dissolved in DMSO in five, 10-fold dilutions (0.01–100 µM). The cell lines HeLa (cervical carcinoma), SW620 (colorectal adenocarcinoma, metastatic), HepG2 (hepatocellular carcinoma), CFPAC-1 (ductal pancreatic adenocarcinoma), and WI38 (human lung fibroblast cell line), were cultured as monolayers and maintained in Dulbecco’s modified Eagle medium (DMEM) supplemented with 10% fetal bovine serum (FBS), 2 mM L-glutamine, 100 U mL^−1 penicillin and 100 μg mL^−1 streptomycin in a humidified atmosphere with 5% CO2 at 37 °C.
(§2) The MTT assay was used for evaluation of effects of tested compounds on viability of carcinoma and control cell lines. About 5000 cells per well were seeded onto a series of standard 96-well plates on day 0. Test agents were then added and incubated for further 72 h. Working dilutions of tested compounds were freshly prepared in the growth medium, on the day of testing. The solvent (DMSO) was also tested for eventual inhibitory activity by adjusting its concentration to be the same as in the working concentrations (DMSO concentration never exceeded 0.1%). After 72 h of incubation, the cell growth rate was evaluated by performing the MTT assay: experimentally determined absorbance values were transformed into a cell percentage growth (PG) using the formulas proposed by NIH and described previously. This method directly relies on control cells number at the day of assay because it compares the growth of treated cells with the growth of untreated cells in control wells on the same plate, the results are therefore a percentile difference from the calculated expected value.
(§3) If, however, all of the tested concentrations produce PGs exceeding the respective reference level of effect (e.g., PG value of 50) for a given cell line, the highest tested concentration is assigned as the default value (in the screening data report that default value is preceded by a “>” sign). Each test point was performed in quadruplicate in three individual experiments. The results were statistically analyzed (Analysis of variance (ANOVA), Tukey post-hoc test at p < 0.05). Finally, the effects of the tested substances were evaluated by plotting the mean percentage growth for each cell type in comparison to control on dose response graphs.
For orientation: Formazan colour is commonly taken as a measure of viable cells.

For data set [2], the system named is CFPAC-1 (ductal pancreatic adenocarcinoma). Nature of the data set: MTT assay, CFPAC-1. It counts as cell-based. The conditions noted are these: Homo sapiens, 72 h. On the procedure: as §1, §2, §3
Data set [3] deals with HepG2 (hepatocellular carcinoma). In words: MTT assay, HepG2. The format is cell-based. As to conditions: Homo sapiens, 72 h. On the procedure:
as §1, §2, §3

The subject of data set [4] is SW620 (colorectal adenocarcinoma, metastatic). In words: MTT assay, SW620. It counts as cell-based. The conditions noted are these: Homo sapiens, SW-620, 72 h. On the procedure:
as §1, §2, §3

For data set [5], the system named is HeLa (cervical carcinoma). Nature of the data set: MTT assay, HeLa. The format is cell-based. As to conditions: Homo sapiens, 72 h. On the procedure: as §1, §2, §3

A value given as a limit tells only on which side of the number the result lay.

Turning to `Cc1c(O)cc(C(C)C)c2oc(-c3ccccc3)nc12` [1a, 4-Methyl-2-phenyl-7-isopropyl-1,3-benzoxazole-5-ol], the melting point was 164 °C. The compound further yielded an IC50 at 72 h in data set [1] of 19.9 µM. The compound further registered an IC50 in data set [2] of 90.2 µM. Moreover, half-maximal inhibition in data set [3] (IC50) was put at 39.3 µM. In addition, the IC50 in data set [4] was > 100 µM. Moreover, in data set [5], the IC50 came to 32.2 µM.
With `Cc1c(O)cc(C(C)C)c2oc(-c3ccccc3O)nc12` [1b, 2-(2-Hydroxyphenyl)-4-methyl-7-isopropyl-1,3-benzoxazole-5-ol], the melting point was 172 °C. Besides, in data set [1], the IC50 at 72 h was determined as 29.8 µM. In data set [2], the IC50 came out at 31 µM. This compound also came in with a 50% inhibitory concentration (IC50) in data set [3] of 32.3 µM. For the same compound, the midpoint of inhibition in data set [4], the IC50, lay at 43.7 µM. Half-maximal inhibition in data set [5] (IC50) was put at 25 µM.
The compound `Cc1c(O)cc(C(C)C)c2oc(-c3ccc(Br)cc3)nc12` [1d, 2-(4-Bromophenyl)-4-methyl-7-isopropyl-1,3-benzoxazole-5-ol] yielded a melting point of 190 °C. This compound also yielded an IC50 at 72 h in data set [1] of 57.6 µM. In addition, half-maximal inhibition in data set [2] (IC50) required 34.5 µM. In data set [3], inhibition was half-maximal at 30.5 µM (IC50). Also, the concentration for half-maximal inhibition (IC50) in data set [4] is 51.5 µM. The 50% inhibitory concentration (IC50) in data set [5] was determined as 30.1 µM.
`Cc1c(O)cc(C(C)C)c2oc(-c3ccc([N+](=O)[O-])cc3)nc12` [1g, 4-Methyl-2-(4-nitrophenyl)-7-isopropyl-1,3-benzoxazole-5-ol] yielded a melting point of 188 °C. The compound also displayed an IC50 at 72 h in data set [1] of 6.21 µM. Moreover, the 50% inhibitory concentration (IC50) in data set [2] was > 100 µM. Moreover, the IC50 in data set [3] was > 100 µM. Also, in data set [4], the IC50 is 54.9 µM. Further, in data set [5], the IC50 is > 100 µM.
Regarding `COc1ccc(-c2nc3c(C)c(O)cc(C(C)C)c3o2)cc1` [1h, 2-(4-Methoxyphenyl)-4-methyl-7-isopropyl-1,3-benzoxazole-5-ol], the melting point was 178 °C. The IC50 at 72 h in data set [1] stood at 75.9 µM. This compound also registered an IC50 in data set [2] of 97 µM. The IC50 in data set [3] is > 100 µM. In data set [4], the concentration for half-maximal inhibition (IC50) was > 100 µM. The IC50 in data set [5] was > 100 µM.
`COc1cc(-c2nc3c(C)c(O)cc(C(C)C)c3o2)ccc1O` [1i, 2-(4-Hydroxy-3-methoxyphenyl)-4-methyl-7-isopropyl-1,3-benzoxazole-5-ol] showed a melting point of 168 °C. The same compound came in with a half-inhibitory concentration (IC50) at 72 h in data set [1] of 9.32 µM. In data set [2], this compound returned an IC50 of 40.6 µM. The compound also showed a half-maximal inhibitory concentration (IC50) in data set [3] of 4.58 µM. Besides, in data set [4], 55.3 µM corresponded to half-maximal inhibition (IC50). Also, half-maximal inhibition in data set [5] (IC50) was put at 6.38 µM.
The compound `Cc1c(O)cc(C(C)C)c2oc(-c3cccs3)nc12` [1j, 4-Methyl-7-isopropyl-2-(thiophene-2-yl)-1,3-benzoxazole-5-ol] came in with a melting point of 152 °C. In data set [1], this compound registered a 50% inhibitory concentration (IC50) at 72 h of 9.97 µM. Further, the midpoint of inhibition in data set [2], the IC50, lay at 27 µM. This compound had an IC50 in data set [3] of 7.28 µM. The same compound had an IC50 in data set [4] of 31.6 µM. This compound also returned an IC50 in data set [5] of 10.3 µM.
